Measured values published in article PMC8175851, “Effects of Genetic Polymorphism in CYP2D6, CYP2C19, and the Organic Cation Transporter OCT1 on Amitriptyline Pharmacokinetics in Healthy Volunteers and Depressive Disorder Patients” (Frontiers in Pharmacology, 2021).
Like-named read-outs stand apart in the source and are kept apart here.

Assay: Pharmacokinetics of AT and NT in healthy volunteers after a single dose of 25 mg amitriptyline
Format: in vivo, human
Details: healthy volunteers; for half-life / Tmax / AUC(0-inf) / Cmax / AUC(0-t): human, plasma, po, 25 mg; for half-life / Tmax / AUC(0-inf) / Cmax / Vz / CL / AUC(0-t): single oral 25 mg AT; for AUC(0-inf): read-out: AUCinf; for AUC(0-t): read-out: AUC48h
Excerpt: In order to enrich the study sample with the less frequent functionally deficient OCT1 variants, participants were selected based on OCT1 genotype from an internal database at the Institute of Clinical Pharmacology of the University Medical Center Göttingen. All volunteers who are listed in the internal database had agreed to it and the database was approved by the ethics committee of the University of Göttingen. […] Additional subjects with heterozygous genotypes were included to provide a better understanding of the effects of specific variants and the mode of inheritance. All volunteers gave their written informed consent before participation in the study. The study was approved by the ethics committee of the University of Göttingen and the German Federal Institute for Drugs and Medical Devices (BfArM). It was registered at the clinical trials databases Clinicaltrials.gov (NCT02054299) and EudraCT (number 2012-003546-33). […] Volunteers who underwent regular drug treatments other than oral contraceptives or who suffered from any relevant chronic illness, as well as pregnant or lactating women, were not included. All subjects were healthy according to a detailed medical history, medical examination, electrocardiogram, urine status and clinical chemistry, and haematology parameters (sodium, potassium, total bilirubin, aspartate aminotransferase, alanine-aminotransferase, creatinine, C-reactive protein, thyroid-stimulating hormone, haemoglobin, erythrocyte, thrombocyte, and leucocyte counts). […] After centrifugation (13,000 rpm, 15 min, room temperature), two-thirds of the supernatant were transferred to a new reaction tube and evaporated at 40°C under nitrogen flow. The residue was reconstituted under shaking in 0.1% methanoic acid and briefly centrifuged before quantification using a Nexera UHPLC system (Shimadzu, Kyoto, Japan) coupled to an API 4000 tandem mass spectrometer (AB Sciex, Darmstadt, Germany). […] PerkinElmer, Rodgau, Germany) with a Phenomenex C18 pre-column (4 × 2 mm, Phenomenex, Aschaffenburg, Germany). […] The lower limit of quantification was 0.5 ng/ml for AT and 0.1 ng/ml for NT. […] The mass spectrometry detection parameters are listed in Supplementary Table S1. For the study in healthy volunteers, the primary endpoints were the AUCs of plasma AT and NT concentrations. Secondary endpoints were the other pharmacokinetic parameters of AT and NT, as well as heart rate, blood pressure, pupil size effects, and possible adverse events (headache, fatigue, visual or hearing impairments, restlessness, nausea, dizziness, dry mouth, tremor, as well as sensations of hypothermia and heart palpitations determined using a visual analogue scale test). Pharmacokinetic parameters were calculated by non-compartmental analysis using Phoenix 64 WinNonlin version 6.3 (Certara Inc., Princeton, NJ, United States). AUCinf of AT was calculated from the time of dosing using the linear/log trapezoidal rule and extrapolated to infinity based on the last predicted concentration and using the terminal elimination rate constant (lambda z). AUC of NT was calculated from the time of dosing until the last measurement at 48 h using the linear/log trapezoidal rule, as a decline in NT concentrations was not observed in some subjects and extrapolation to infinity thus not possible.

[1] = both sexes, CYP2D6 activity 1.5 (n = 6), mean
[2] = both sexes, CYP2D6 activity 2 (n = 11), mean
[3] = both sexes, CYP2D6 activity 2.5 (n = 1), mean
[4] = both sexes, CYP2D6 activity 3 (n = 2), mean
[5] = CYP2C19 activity score 0 (n = 1), mean
[6] = CYP2C19 activity score 3 (n = 1), mean

- half-life (both sexes, CYP2D6 activity 1 (n = 10), mean): 21.4 h
- Tmax [1]: 3.7 h
- half-life [1]: 19.8 h
- Tmax [2]: 3.4 h
- half-life [2]: 19.5 h
- Tmax [3]: 6 h
- half-life [3]: 14 h
- Tmax [4]: 2 h
- half-life [4]: 20.6 h
- AUC(0-inf) (both sexes, OCT1 genotype *1 / *1 (n 14), mean ± standard deviation): 243 ± 88 ng·h/mL
- AUC(0-inf) (both sexes, OCT1 genotype *1 / *2 (n 3), mean ± standard deviation): 273 ± 59 ng·h/mL
- AUC(0-inf) (both sexes, OCT1 genotype *1 / *3 (n 4), mean ± standard deviation): 216 ± 87 ng·h/mL
- AUC(0-inf) (both sexes, OCT1 genotype *1 / *4 (n 2), mean ± standard deviation): 187 ± 49 ng·h/mL
- AUC(0-inf) (both sexes, OCT1 genotype *2 / *2 (n 3), mean ± standard deviation): 202 ± 92 ng·h/mL
- AUC(0-inf) (both sexes, OCT1 genotype *2 / *3 (n 4), mean ± standard deviation): 189 ± 53 ng·h/mL
- AUC(0-inf) (both sexes, OCT1 genotype *2 / *5 (n 1)): 298 ng·h/mL
- AUC(0-inf) (both sexes, OCT1 genotype *3 / *3 (n 3), mean ± standard deviation): 172 ± 28 ng·h/mL
- AUC(0-inf) (both sexes, OCT1 genotype *3 / *4 (n 1)): 215 ng·h/mL
- Cmax (both sexes, read-out: average Cmax): 39 nM
- Cmax (both sexes, read-out: average Cmax (average peak plasma concentration)): 10.7 ng/mL
- peak concentration of unbound AT (25 mg AT, from peak plasma concentration with 95% plasma protein binding): 0.54 µg/L
- Vz (0 active OCT1 alleles (n = 12)): 3,828 ± 800 L
- Vz (1 active OCT1 allele (n = 9)): 3,610 ± 1,633 L
- Vz (2 active OCT1 alleles (n = 14)): 3,401 ± 1,041 L
- CL (CL/F = dose/AUCinf, 0 active OCT1 alleles (n = 12)): 2.3 ± 0.6 L/min
- CL (CL/F = dose/AUCinf, 1 active OCT1 allele (n = 9)): 2.0 ± 0.8 L/min
- CL (CL/F = dose/AUCinf, 2 active OCT1 alleles (n = 14)): 1.9 ± 0.6 L/min
- CL (CL/F, CYP2C19 activity score 0 (n = 1), mean): 1.30 L/min
- CL (CL/F, CYP2C19 activity score 1 (n = 5), mean): 1.94 L/min
- CL (CL/F, CYP2C19 activity score 1.5 (n = 2), mean): 1.5 L/min
- CL (CL/F, CYP2C19 activity score 2 (n = 16), mean): 2.1 L/min
- CL (CL/F, CYP2C19 activity score 2.5 (n = 10), mean): 2.2 L/min
- CL (CL/F, CYP2C19 activity score 3 (n = 1), mean): 1.54 L/min
- CL (CL/F, CYP2D6 activity 0 (n = 3), mean): 1.45 L/min
- CL (CL/F, CYP2D6 activity 0.5 (n = 2), mean): 2.09 L/min
- CL (CL/F, CYP2D6 activity 1 (n = 10), mean): 1.81 L/min
- CL (CL/F, CYP2D6 activity 1.5 (n = 6), mean): 2.03 L/min
- CL (CL/F, CYP2D6 activity 2 (n = 11), mean): 2.25 L/min
- CL (CL/F, CYP2D6 activity 2.5 (n = 1), mean): 2.64 L/min
- CL (CL/F, CYP2D6 activity 3 (n = 2), mean): 2.92 L/min
- Vz [5]: 3,004 L
- Vz (CYP2C19 activity score 1 (n = 5), mean): 3,525 L
- Vz (CYP2C19 activity score 1.5 (n = 2), mean): 2,559 L
- Vz (CYP2C19 activity score 2 (n = 16), mean): 3,696 L
- Vz (CYP2C19 activity score 2.5 (n = 10), mean): 3,740 L
- Vz [6]: 3,762 L
- Vz (CYP2D6 activity 0 (n = 3), mean): 2,982 L
- Vz (CYP2D6 activity 0.5 (n = 2), mean): 4,189 L
- Vz (CYP2D6 activity 1 (n = 10), mean): 3,269 L
- Vz (CYP2D6 activity 1.5 (n = 6), mean): 3,446 L
- Vz (CYP2D6 activity 2 (n = 11), mean): 3,768 L
- Vz (CYP2D6 activity 2.5 (n = 1), mean): 3,192 L
- Vz (CYP2D6 activity 3 (n = 2), mean): 5,361 L
- AUC(0-t) [5]: 229 ng·h/mL
- AUC(0-inf) [5]: 321 ng·h/mL
- Cmax (CYP2C19 activity score 0 (n = 1), mean, read-out: Cmax): 11.5 ng/mL
- AUC(0-t) [6]: 198 ng·h/mL
- AUC(0-inf) [6]: 271 ng·h/mL
- Cmax (CYP2C19 activity score 3 (n = 1), mean, read-out: Cmax): 13.9 ng/mL
- Tmax [5]: 4 h
- half-life [5]: 26.7 h
- Tmax [6]: 2 h
- half-life [6]: 28.3 h
Compound: CN(C)CCC=C1c2ccccc2CCc2ccccc21 [Amitriptyline, amitriptyline]
